What was measured:
[1] = tested on: bicistronic HCV replicon (replicon RNA, GenBank Accession No. AJ242654); assay: HCV Replicon Assay; format: cell-based; details: Hepatitis C virus, 72 h, read-out: Replicon IC50

SMILES | IC50 [1] | melting point
C[C@H](NS(=O)(=O)c1ccc(-c2c(C#N)c3cc(F)c(C4CC4)cc3n2C2CCC2)nc1)C(F)(F)F [compound 630, 6-(3-cyano-1-cyclobutyl-6-cyclopropyl-5-fluoro-1H-indol-2-yl)-N-[(2S)-1,1,1-trifluoropropan-2-yl]pyridine-3-sulfonamide] | < 500 nM | 201 to 203 °C
CC(C)NS(=O)(=O)c1cnc(-c2c(C#N)c3ccc(C(F)F)cc3n2C2CCC2)nc1 [compound 332, 2-[3-cyano-1-cyclobutyl-6-(difluoromethyl)-1H-indol-2-yl]-N-(propan-2-yl)pyrimidine-5-sulfonamide] | < 500 nM | 221 to 227 °C
Cc1cc2c(cc1O)c(C#N)c(-c1ccc(S(=O)(=O)N[C@@H](C)C(F)(F)F)cn1)n2C1CCC1 [compound 796, 6-(3-cyano-1-cyclobutyl-5-hydroxy-6-methyl-1H-indol-2-yl)-N-[(2S)-1,1,1-trifluoropropan-2-yl]pyridine-3-sulfonamide] | < 500 nM | 193 to 195 °C
N#Cc1c(-c2ccc(NS(=O)(=O)C3CC3)cn2)n(C2CCCCC2)c2ccc(Cl)cc12 [compound 298, N-[6-(5-chloro-3-cyano-1-cyclohexyl-1H-indol-2-yl)pyridin-3-yl]cyclopropanesulfonamide] | 500 to 2000 nM | 230 to 235 °C
CC(NS(=O)(=O)c1ccc(-c2c(C#N)c3ccc(C4CC4)cc3n2C2CCCC2)nc1)C(F)(F)F (stereo not shown) [compound 86, 6-(3-cyano-1-cyclopentyl-6-cyclopropyl-1H-indol-2-yl)-N-(1,1,1-trifluoropropan-2-yl)pyridine-3-sulfonamide] | < 500 nM | 166 to 170 °C
CC(C)(C)S(=O)(=O)Nc1ccc(-c2c(C#N)c3cc(F)c(OC(F)F)cc3n2C2CCCCC2)cn1 [compound 1065, N-{5-[3-cyano-1-cyclohexyl-6-(difluoromethoxy)-5-fluoro-1H-indol-2-yl]pyridin-2-yl}-2-methylpropane-2-sulfonamide] | < 500 nM | 278 to 280 °C
COc1ccc2c(C#N)c(-c3ncc(S(=O)(=O)N[C@@H](C)C(F)(F)F)cn3)n(C3CCCC3)c2c1 [compound 406, 2-(3-cyano-1-cyclopentyl-6-methoxy-1H-indol-2-yl)-N-[(2S)-1,1,1-trifluoropropan-2-yl]pyrimidine-5-sulfonamide] | < 500 nM | 211 to 212 °C
Cc1cc2c(cc1F)c(C#N)c(-c1ccc(S(=O)(=O)N[C@@H](C)C(F)(F)F)cn1)n2-c1c[nH]nc1C [compound 1030, 6-[3-cyano-5-fluoro-6-methyl-1-(3-methyl-1H-pyrazol-4-yl)-1H-indol-2-yl]-N-[(2S)-1,1,1-trifluoropropan-2-yl]pyridine-3-sulfonamide] | 500 to 2000 nM | 238.8 to 244 °C
N#Cc1c(-c2ncc(S(=O)(=O)NC(CF)CF)cn2)n(C2CCCC2)c2cc(OC(F)F)ccc12 [compound 233, 2-[3-cyano-1-cyclopentyl-6-(difluoromethoxy)-1H-indol-2-yl]-N-(1,3-difluoropropan-2-yl)pyrimidine-5-sulfonamide] | < 500 nM | 199 to 201 °C
CCc1cc2c(cc1F)c(C#N)c(-c1ccc(S(=O)(=O)NC(C)(C)C)cn1)n2-c1ncccn1 [compound 855, N-tert-butyl-6-[3-cyano-6-ethyl-5-fluoro-1-(pyrimidin-2-yl)-1H-indol-2-yl]pyridine-3-sulfonamide] | < 500 nM | 208 to 210 °C
N#Cc1c(-c2ncc(S(=O)(=O)NC(CF)CF)cn2)n(C2CCC2)c2cc(Cl)ccc12 [compound 176, 2-(6-chloro-3-cyano-1-cyclobutyl-1H-indol-2-yl)-N-(1,3-difluoropropan-2-yl)pyrimidine-5-sulfonamide] | < 500 nM | 243 to 246 °C
C[C@H](NS(=O)(=O)c1ccc(-c2c(C#N)c3cc(F)ccc3n2-c2ncccn2)nc1)C(F)(F)F [compound 601, 6-[3-cyano-5-fluoro-1-(pyrimidin-2-yl)-1H-indol-2-yl]-N-[(2S)-1,1,1-trifluoropropan-2-yl]pyridine-3-sulfonamide] | < 500 nM | 201 to 203 °C
C[C@H](NS(=O)(=O)c1ccc(-c2c(C#N)c3ccc(Cl)cc3n2C2CCC2)nc1)C(F)(F)F [compound 375, 6-(6-chloro-3-cyano-1-cyclobutyl-1H-indol-2-yl)-N-[(2S)-1,1,1-trifluoropropan-2-yl]pyridine-3-sulfonamide] | < 500 nM | 198 to 204 °C
Cc1cnc(-n2c(-c3ccc(S(=O)(=O)N[C@@H](C)C(F)(F)F)cn3)c(C#N)c3cc(F)c(C)cc32)s1 [compound 1017, 6-[3-cyano-5-fluoro-6-methyl-1-(5-methyl-1,3-thiazol-2-yl)-1H-indol-2-yl]-N-[(2S)-1,1,1-trifluoropropan-2-yl]pyridine-3-sulfonamide] | < 500 nM | 223.1 to 228.1 °C
NC(=O)c1c(-c2ccc(S(=O)(=O)NC3(C(F)(F)F)CC3)cn2)n(C2CCC2)c2cc(OC(F)F)c(F)cc12 [compound 809, 1-cyclobutyl-6-(difluoromethoxy)-5-fluoro-2-(5-{[1-(trifluoromethyl)cyclopropyl]sulfamoyl}pyridin-2-yl)-1H-indole-3-carboxamide] | < 500 nM | 197 to 200 °C
COc1ccc2c(C#N)c(-c3ncc(S(=O)(=O)NC(CF)CF)cn3)n(C3CCCC3)c2c1 [compound 231, 2-(3-cyano-1-cyclopentyl-6-methoxy-1H-indol-2-yl)-N-(1,3-difluoropropan-2-yl)pyrimidine-5-sulfonamide] | < 500 nM | 232 to 234 °C
C[C@H](NS(=O)(=O)c1cnc(-c2c(C#N)c3cc(F)ccc3n2CC2CC2)nc1)C(F)(F)F [compound 548, 2-[3-cyano-1-(cyclopropylmethyl)-5-fluoro-1H-indol-2-yl]-N-[(2S)-1,1,1-trifluoropropan-2-yl]pyrimidine-5-sulfonamide] | 500 to 2000 nM | 175 to 180 °C
Cc1cc2c(cc1F)c(C#N)c(-c1ccc(S(=O)(=O)N[C@@H](C)C(F)(F)F)cn1)n2-c1cc(F)cc(F)n1 [compound 1001, 6-[3-cyano-1-(4,6-difluoropyridin-2-yl)-5-fluoro-6-methyl-1H-indol-2-yl]-N-[(2S)-1,1,1-trifluoropropan-2-yl]pyridine-3-sulfonamide] | < 500 nM | 190.2 to 196.8 °C
N#Cc1c(-c2ncc(S(=O)(=O)NC(CF)CF)cn2)n(CC2CC2)c2cc(F)ccc12 [compound 164, 2-[3-cyano-1-(cyclopropylmethyl)-6-fluoro-1H-indol-2-yl]-N-(1,3-difluoropropan-2-yl)pyrimidine-5-sulfonamide] | 500 to 2000 nM | 176 to 178 °C
C[C@H](NS(=O)(=O)c1cnc(-c2c(C#N)c3cc(F)ccc3n2C2CCCC2)nc1)C(F)(F)F [compound 547, 2-(3-cyano-1-cyclopentyl-5-fluoro-1H-indol-2-yl)-N-[(2S)-1,1,1-trifluoropropan-2-yl]pyrimidine-5-sulfonamide] | < 500 nM | 214 to 218 °C
